The target in one series is ErbB2 WT (Homo sapiens (Human), UniProt P04626). The experiment in a line: ErbB Enzyme Assay (HTRF KinEASE-TK), Assay 2. The series is classed as biochemical.
Another series has as its target EGFR wild type (EGFR WT) (Homo sapiens (Human), UniProt P00533). Kind of series: Cellular Phosphorylation Assay, Assay 5 (EGF-stimulated EGFR phosphorylation, NIH 3T3 cells). It is filed as cell-based.
The next series has as its target BCRP (Homo sapiens (Human), UniProt Q9UNQ0). Kind of series: BCRP MDCKII efflux assay (Assay 7). It is filed as in vitro ADME. As to conditions: dog; efflux ratio Papp(B-A)/Papp(A-B), BCRP MDCKII cells; read-out: Assay 7 Pe Ratio. The method, then: Assay conditions included with and without the BCRP-specific inhibitor, KO143, at a concentration of 0.3 μM to ascertain the contribution of BCRP to the efflux value of the test compound.
Final organic concentration in the assay was 1%.

A further series deals with EGFR (Homo sapiens (Human), UniProt P00533). Kind of series: ErbB Enzyme Assay (HTRF KinEASE-TK), Assay 3. The series is classed as biochemical.
Sequence of EGFR (P00533 25-1210): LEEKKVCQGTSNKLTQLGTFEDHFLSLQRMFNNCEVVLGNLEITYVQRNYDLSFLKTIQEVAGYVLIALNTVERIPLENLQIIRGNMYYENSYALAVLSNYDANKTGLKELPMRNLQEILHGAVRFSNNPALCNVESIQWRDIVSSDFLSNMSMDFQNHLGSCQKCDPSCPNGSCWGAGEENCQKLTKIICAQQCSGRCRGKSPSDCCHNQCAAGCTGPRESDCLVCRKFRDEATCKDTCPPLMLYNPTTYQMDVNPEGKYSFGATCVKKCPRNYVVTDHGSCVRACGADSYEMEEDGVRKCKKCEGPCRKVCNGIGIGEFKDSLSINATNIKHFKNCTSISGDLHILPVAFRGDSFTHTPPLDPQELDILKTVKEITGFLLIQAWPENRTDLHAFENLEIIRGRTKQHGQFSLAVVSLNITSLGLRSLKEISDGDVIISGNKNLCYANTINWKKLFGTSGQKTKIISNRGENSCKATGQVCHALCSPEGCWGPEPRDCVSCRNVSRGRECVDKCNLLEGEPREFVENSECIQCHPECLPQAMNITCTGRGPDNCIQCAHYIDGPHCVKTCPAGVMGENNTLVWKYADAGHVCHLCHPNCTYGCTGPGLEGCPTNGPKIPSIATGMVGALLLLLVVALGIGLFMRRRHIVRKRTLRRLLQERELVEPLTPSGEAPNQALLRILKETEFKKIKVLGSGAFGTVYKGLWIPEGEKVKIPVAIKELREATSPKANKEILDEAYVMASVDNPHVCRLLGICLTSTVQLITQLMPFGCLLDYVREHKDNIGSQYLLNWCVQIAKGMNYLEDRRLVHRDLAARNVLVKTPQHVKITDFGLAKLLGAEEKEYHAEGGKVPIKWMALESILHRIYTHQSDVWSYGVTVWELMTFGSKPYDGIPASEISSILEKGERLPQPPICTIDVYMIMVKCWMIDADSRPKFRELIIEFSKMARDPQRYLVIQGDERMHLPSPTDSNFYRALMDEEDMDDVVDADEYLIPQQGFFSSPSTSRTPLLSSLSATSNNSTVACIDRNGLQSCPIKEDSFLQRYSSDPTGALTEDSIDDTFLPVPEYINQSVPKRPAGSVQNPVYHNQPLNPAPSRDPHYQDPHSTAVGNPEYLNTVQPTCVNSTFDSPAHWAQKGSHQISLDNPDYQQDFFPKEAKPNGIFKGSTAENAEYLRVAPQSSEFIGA
For series [1], the target named is ErbB2 with Exon 20 YVMA insertion (HER2-YVMA) (Homo sapiens (Human), UniProt P04626, INS775YVMA). Kind of series: Cellular Phosphorylation Assay, Assay 4 (constitutive ErbB2 phosphorylation, NIH 3T3 cells). It is filed as cell-based.
Sequence of ErbB2 with Exon 20 YVMA insertion (HER2-YVMA) (P04626 other isoform, or with tags, fused parts or gaps ins YVMA behind 775): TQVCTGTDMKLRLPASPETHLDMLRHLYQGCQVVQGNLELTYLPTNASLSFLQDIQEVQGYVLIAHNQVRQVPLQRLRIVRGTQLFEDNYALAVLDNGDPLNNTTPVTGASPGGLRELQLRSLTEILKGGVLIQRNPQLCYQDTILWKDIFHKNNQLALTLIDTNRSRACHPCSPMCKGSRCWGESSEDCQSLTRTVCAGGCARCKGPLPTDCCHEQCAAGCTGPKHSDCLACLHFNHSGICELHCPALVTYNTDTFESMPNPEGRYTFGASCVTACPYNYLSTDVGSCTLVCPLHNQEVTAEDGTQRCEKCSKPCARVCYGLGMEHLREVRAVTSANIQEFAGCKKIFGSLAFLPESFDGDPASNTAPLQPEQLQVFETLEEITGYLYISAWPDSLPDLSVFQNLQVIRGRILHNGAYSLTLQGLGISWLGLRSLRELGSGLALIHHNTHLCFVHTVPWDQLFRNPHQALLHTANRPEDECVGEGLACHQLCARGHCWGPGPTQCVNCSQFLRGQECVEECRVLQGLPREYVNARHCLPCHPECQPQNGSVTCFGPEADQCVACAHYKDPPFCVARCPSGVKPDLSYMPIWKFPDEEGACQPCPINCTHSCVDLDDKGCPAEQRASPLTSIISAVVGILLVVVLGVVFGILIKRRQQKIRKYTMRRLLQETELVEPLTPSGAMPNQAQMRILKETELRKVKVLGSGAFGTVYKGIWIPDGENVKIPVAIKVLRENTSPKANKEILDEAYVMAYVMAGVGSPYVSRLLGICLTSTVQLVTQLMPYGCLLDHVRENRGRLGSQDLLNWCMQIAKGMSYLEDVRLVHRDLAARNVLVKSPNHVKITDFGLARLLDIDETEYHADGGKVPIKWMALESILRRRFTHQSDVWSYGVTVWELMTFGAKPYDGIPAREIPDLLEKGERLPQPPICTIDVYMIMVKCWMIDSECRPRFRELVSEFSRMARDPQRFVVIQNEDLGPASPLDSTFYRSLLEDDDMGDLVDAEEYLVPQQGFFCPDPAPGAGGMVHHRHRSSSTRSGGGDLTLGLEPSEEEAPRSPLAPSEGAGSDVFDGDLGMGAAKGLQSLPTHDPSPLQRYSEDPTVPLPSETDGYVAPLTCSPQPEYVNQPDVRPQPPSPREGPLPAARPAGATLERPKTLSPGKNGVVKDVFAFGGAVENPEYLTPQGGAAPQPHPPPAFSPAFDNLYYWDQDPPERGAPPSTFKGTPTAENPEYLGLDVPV
The mark [2] stands for this setting: EGF-stimulated EGFR WT phosphorylation.
Where [3] appears, read: cellular EGFR WT phosphorylation, EGF-stimulated.
Setting [4] is: cellular ErbB2 YVMA phosphorylation.

Sequence of ErbB2 WT (P04626 23-1255): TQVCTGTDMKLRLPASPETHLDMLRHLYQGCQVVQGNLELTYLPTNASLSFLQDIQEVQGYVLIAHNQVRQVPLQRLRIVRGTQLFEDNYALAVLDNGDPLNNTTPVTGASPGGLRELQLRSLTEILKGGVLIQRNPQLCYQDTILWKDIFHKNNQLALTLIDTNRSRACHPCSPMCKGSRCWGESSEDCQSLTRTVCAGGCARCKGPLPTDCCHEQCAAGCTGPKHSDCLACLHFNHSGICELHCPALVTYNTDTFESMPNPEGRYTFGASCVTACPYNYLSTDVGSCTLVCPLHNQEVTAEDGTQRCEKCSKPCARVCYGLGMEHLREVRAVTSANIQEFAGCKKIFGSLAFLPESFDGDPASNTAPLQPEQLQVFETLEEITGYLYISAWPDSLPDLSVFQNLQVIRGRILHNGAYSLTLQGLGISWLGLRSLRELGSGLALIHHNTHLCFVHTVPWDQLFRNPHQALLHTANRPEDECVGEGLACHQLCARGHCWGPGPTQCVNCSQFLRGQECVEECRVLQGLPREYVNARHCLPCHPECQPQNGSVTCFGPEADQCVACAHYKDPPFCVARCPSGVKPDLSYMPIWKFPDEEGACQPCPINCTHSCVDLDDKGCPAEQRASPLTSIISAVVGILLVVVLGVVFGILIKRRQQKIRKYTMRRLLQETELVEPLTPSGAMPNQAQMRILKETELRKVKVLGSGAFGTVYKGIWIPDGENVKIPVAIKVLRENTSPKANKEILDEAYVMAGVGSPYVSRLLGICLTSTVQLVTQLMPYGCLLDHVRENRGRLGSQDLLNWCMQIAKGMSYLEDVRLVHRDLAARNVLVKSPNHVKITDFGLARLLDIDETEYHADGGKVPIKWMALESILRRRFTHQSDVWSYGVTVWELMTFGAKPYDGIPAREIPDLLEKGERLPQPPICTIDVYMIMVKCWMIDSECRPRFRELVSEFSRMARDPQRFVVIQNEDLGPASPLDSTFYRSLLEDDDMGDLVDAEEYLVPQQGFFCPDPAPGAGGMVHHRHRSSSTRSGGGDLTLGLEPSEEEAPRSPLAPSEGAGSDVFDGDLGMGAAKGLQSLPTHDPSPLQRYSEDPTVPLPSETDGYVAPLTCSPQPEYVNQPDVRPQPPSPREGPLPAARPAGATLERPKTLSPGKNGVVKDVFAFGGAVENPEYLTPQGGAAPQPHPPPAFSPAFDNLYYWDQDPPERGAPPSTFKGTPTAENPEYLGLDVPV
Sequence of EGFR wild type (EGFR WT) (P00533 25-1210): as the sequence (P00533 25-1210) above

In the case of `C=CC(=O)N1CCCN(c2ccc3ncnc(Nc4ccc(Oc5cnc6c(c5)ncn6C)c(Cl)c4)c3n2)CC1` [Example 113, 1-(4-(4-((3-chloro-4-((3-methyl-3H-imidazo[4,5-b]pyridin-6-yl)oxy)phenyl)amino)pyrido[3,2-d]pyrimidin-6-yl)-1,4-diazepan-1-yl)prop-2-en-1-one], the IC50 was 184 nM against ErbB2 WT (ErbB2 WT enzyme), at least 5000 nM on EGFR wild type (EGFR WT) (setting [2]), at least 10000 nM at EGFR (EGFR enzyme) and 30.2 nM in series [1] (ErbB2 YVMA phosphorylation). Besides, the efflux ratio at 2 h, 1 µM on BCRP was found to be 37.5.

With `C=CC(=O)N1CCN(c2ccc3ncnc(Nc4ccc(Oc5cnc6c(c5)ncn6C)c(C)c4)c3n2)CC1` [Example 110, 1-(4-(4-((3-methyl-4-((3-methyl-3H-imidazo[4,5-b]pyridin-6-yl)oxy)phenyl)amino)pyrido[3,2-d]pyrimidin-6-yl)piperazin-1-yl)prop-2-en-1-one], the IC50 on ErbB2 WT (ErbB2 WT enzyme) was determined as 58 nM; on EGFR wild type (EGFR WT) (setting [2]) it was 2530 nM; against EGFR (EGFR enzyme), 6160 nM; in series [1] (ErbB2 YVMA phosphorylation), 5 nM. The efflux ratio at 2 h, 1 µM on BCRP came out at 84.4.

As for `C=CC(=O)N1CCCC[C@@H](c2ccc3ncnc(Nc4cc(C)c(Oc5ccc6c(c5)ncn6C)cc4F)c3n2)C1` (racemic) [Example 137, rac-(R)-1-(3-(4-((2-fluoro-5-methyl-4-((1-methyl-1H-benzo[d]imidazol-5-yl)oxy)phenyl)amino)pyrido[3,2-d]pyrimidin-6-yl)azepan-1-yl)prop-2-en-1-one], the IC50 at ErbB2 WT (ErbB2 WT enzyme) was 27.9 nM; against EGFR wild type (EGFR WT) (setting [2]), 4370 nM; on EGFR (EGFR enzyme), 2630 nM; in series [1] (ErbB2 YVMA phosphorylation), 16.8 nM. For the same compound, the efflux ratio at 2 h, 1 µM on BCRP was determined as 1.9.

With `C=CC(=O)N1C2CCC1CN(c1ccc3ncnc(Nc4cc(C)c(Oc5ccn6ncnc6c5)cc4F)c3n1)C2` [Example 443], the IC50 amounted to 90.6 nM on ErbB2 WT (ErbB2 WT enzyme assay), 2820 nM against EGFR wild type (EGFR WT) (setting [3]), 4150 nM against EGFR (EGFR enzyme assay) and 25.5 nM in series [1] (setting [4]). The efflux ratio at 2 h, 1 µM at BCRP came out at 10.

Turning to `C=CC(=O)N1C2CCC1CN(c1ccc3ncnc(Nc4cc(Cl)c(Oc5ccn6ncnc6c5)cc4F)c3n1)C2` [Example 434], the 50% inhibitory concentration (IC50) against ErbB2 WT (ErbB2 WT enzyme assay) came to 20.8 nM; on EGFR wild type (EGFR WT) (setting [3]), 3490 nM; against EGFR (EGFR enzyme assay) it was 1230 nM; in series [1] (setting [4]) it was 9.8 nM. Moreover, at BCRP, the efflux ratio at 2 h, 1 µM turned out to be 13.6.

Take `C=CC(=O)N1CCN(c2ccc3ncnc(Nc4ccc(Oc5cc(F)c6c(c5)ncn6C)c(C)c4)c3n2)CC1(C)C` [Example 277]: the IC50 on ErbB2 WT (ErbB2 WT enzyme assay) came to 23.7 nM; at EGFR wild type (EGFR WT) (setting [3]), 975 nM; against EGFR (EGFR enzyme assay) it was 992 nM; in series [1] (setting [4]), 12.5 nM. Further, the efflux ratio at 2 h, 1 µM on BCRP is 7.3.

In the case of `C=CC(=O)N1CC(Sc2ccc3ncnc(Nc4ccc(Oc5ccn6ncnc6c5)c(C)c4F)c3n2)C1` [Example 63, 1-(3-((4-((4-([1,2,4]triazolo[1,5-a]pyridin-7-yloxy)-2-fluoro-3-methylphenyl)amino)pyrido[3,2-d]pyrimidin-6-yl)thio)azetidin-1-yl)prop-2-en-1-one], the IC50 against ErbB2 WT (ErbB2 WT enzyme) amounted to 31.4 nM; against EGFR wild type (EGFR WT) (setting [2]) it was 426 nM; at EGFR (EGFR enzyme), 508 nM; in series [1] (ErbB2 YVMA phosphorylation), 19.5 nM. On BCRP, the efflux ratio at 2 h, 1 µM worked out at 3.8.

As to `C=CC(=O)N1CCN(c2ccc3ncnc(Nc4ccc(Oc5ccn6ncnc6c5)c(C)c4F)c3n2)C[C@H]1COC` [Example 358], the IC50 was 10 nM at ErbB2 WT (ErbB2 WT enzyme assay), 83.2 nM against EGFR wild type (EGFR WT) (setting [3]), 237 nM against EGFR (EGFR enzyme assay) and 2.9 nM in series [1] (setting [4]). Also, the efflux ratio at 2 h, 1 µM on BCRP amounted to 8.5.

Take `C=CC(=O)N1CCC(c2ccc3ncnc(Nc4ccc(Oc5ccc6c(c5)ncn6C)c(C)c4)c3n2)CC1` [Example 34, 1-(4-(4-((3-methyl-4-((1-methyl-1H-benzo[d]imidazol-5-yl)oxy)phenyl)amino)pyrido[3,2-d]pyrimidin-6-yl)piperidin-1-yl)prop-2-en-1-one]: the IC50 on ErbB2 WT (ErbB2 WT enzyme) is 28.7 nM; against EGFR wild type (EGFR WT) (setting [2]), at least 5000 nM; on EGFR (EGFR enzyme), 6870 nM; in series [1] (ErbB2 YVMA phosphorylation), 9.5 nM. Besides, the efflux ratio at 2 h, 1 µM on BCRP was determined as 6.7.

Values taken from patent US12447153B2, “HER2 mutation inhibitors” (Array BioPharma Inc., priority 2021, dated 2025).
